This is an account of results in ChEMBL document CHEMBL1201862, “PubChem BioAssay data set” (2004).

What all share (assay): NCI anticancer screen, dose series, 48 h
Test [1] relates to SK-MEL-28.
Test [2] has as its system OVCAR-5.
Test [3] deals with HCC 2998.
Test [4] relates to SK-MEL-2.
Test [5] has as its system CCRF-CEM.
Test [6] concerns UACC-62.
Test [7] deals with OVCAR-4.
The test system of test [8] is HCT-116.
The subject of test [9] is SF-268.
Test [10] concerns SNB-19.
The test system of test [11] is COLO 205.
For test [12], the system named is IGROV-1.
Test [13] has as its system UO-31.
The subject of test [14] is OVCAR-8.
In test [15] the test system is Malme-3M.
Test [16] relates to OVCAR-3.
Test [17] deals with A549.
Test [18] concerns HCT-15.
Test [19] deals with NCI-H23.
Test [20] deals with UACC-257.

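Each compound was tested at five concentrations against cells in 96-well plates for 48 hours. Here, GI50 denotes the concentration required for 50% inhibition of growth.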 The source made the active and inactive calls. No stated cut-off is given here; in the data, active = GI50 up to about 1.1 µM and inactive = higher.

For the compound `N=C(N)NS(=O)(=O)c1ccc(Nc2c3ccccc3nc3c(C(=O)N4CCN(CCO)CC4)ccc(Cl)c23)cc1`, the GI50 in test [1], in test [2], in [3], in test [4], in test [5] and in [6] was > 100 µM (inactive) each time. Besides, the GI50 in [7], in test [8], in [9], in [10], in test [11] and in test [12] was > 100 µM (inactive) each time. Further, the GI50 is > 100 µM (inactive) in test [13]; > 100 µM (inactive) in test [14]; > 100 µM (inactive) in test [15]; > 100 µM (inactive) in test [16]; > 100 µM (inactive) in test [17]; above 100 µM in [18]. Moreover, the GI50 in [19] and in [20] was > 100 µM (inactive) throughout.
`NC(=O)NN=C(CS)CS`: the GI50 is 30.6 µM (inactive) in [1]; 24.1 µM (inactive) in test [2]; 31 µM (inactive) in [3]; 20.8 µM (inactive) in [4]; 36.9 µM (inactive) in [5]; 25.3 µM (inactive) in test [6]. Also, the GI50 is 25.4 µM (inactive) in test [7]; 38.5 µM (inactive) in test [8]; 34.8 µM (inactive) in test [9]; 23.1 µM (inactive) in test [10]; 23.1 µM (inactive) in test [11]; 39.1 µM (inactive) in test [12]. Besides, the GI50 in [13] was 18.8 µM (inactive); in test [14], 27.5 µM (inactive); in [15], 19.7 µM (inactive); in test [16], 23.3 µM (inactive); in test [17] it was 22 µM (inactive); in [18], 22.8 µM. Further, the GI50 in test [19] was 22.7 µM (inactive); in [20], 19.5 µM (inactive).
Consider `Nc1nc(=O)n(CC(O)CO)s1` (centres undefined), for which the GI50 was < 0.01 µM (active) in test [1]; > 100 µM (inactive) in test [2]; > 100 µM (inactive) in test [3]; > 100 µM (inactive) in test [4]; > 100 µM (inactive) in test [5]; > 100 µM (inactive) in test [6]. The GI50 in test [7], in test [8], in test [9], in test [10], in test [11] and in [12] was > 100 µM (inactive) throughout. The GI50 is > 100 µM (inactive) in test [13]; > 100 µM (inactive) in test [14]; > 100 µM (inactive) in test [15]; > 100 µM (inactive) in [16]; > 100 µM (inactive) in test [17]; above 100 µM in test [18]. The GI50 in test [19] and in test [20] was > 100 µM (inactive) in each case.
As to `NC(S)=Nc1cc(Cl)ccc1Cl`, the GI50 in test [1], in test [2], in test [3], in test [4], in [5] and in test [6] was > 100 µM (inactive) each time. For the same compound, the GI50 in test [7], in [8], in test [9], in [10], in [11] and in test [12] was > 100 µM (inactive) each time. The GI50 was > 100 µM (inactive) in [13]; 62.1 µM (inactive) in [14]; > 100 µM (inactive) in test [15]; > 100 µM (inactive) in [16]; > 100 µM (inactive) in test [17]; above 100 µM in test [18]. Besides, the GI50 in [19] and in test [20] was > 100 µM (inactive) in each case.
On to `Nc1ncnc2c1sc1nc3ccccc3n12`, for which the GI50 was > 100 µM (inactive) in test [1]; > 93.3 µM (inactive) in test [2]; > 44.8 µM (inactive) in [3]; > 100 µM (inactive) in test [4]; 19.8 µM (inactive) in [5]; 31 µM (inactive) in test [6]. Also, the GI50 in test [7] was > 100 µM (inactive); in test [9], 19.4 µM (inactive); in [10], > 100 µM (inactive); in test [11], > 100 µM (inactive); in test [12], 13.4 µM (inactive); in test [13] it was > 77.8 µM (inactive). Also, the GI50 in test [14] is 60.8 µM (inactive); in test [15], > 71.3 µM (inactive); in [16], > 100 µM (inactive); in test [17] it was > 49.1 µM (inactive); in [18], above 100 µM; in [19], > 100 µM (inactive). Also, in [20], the GI50 was > 100 µM (inactive).
Take `COc1nc(-c2cn(S(=O)(=O)c3ccc(C)cc3)c3ccc(Br)cc23)cc(C(F)(F)F)c1C#N`: the GI50 in test [1] is 94.4 µM (inactive); in test [2], 61.5 µM (inactive); in [3] it was 85.9 µM (inactive); in [4], 65.6 µM (inactive); in test [5], 24.8 µM (inactive); in test [6], 38.8 µM (inactive). The GI50 was 41.4 µM (inactive) in test [7]; 53.2 µM (inactive) in test [9]; 25.9 µM (inactive) in [10]; > 100 µM (inactive) in test [11]; 28.4 µM (inactive) in test [12]; 55 µM (inactive) in test [13]. Moreover, the GI50 in test [14] is 25.6 µM (inactive); in test [15], > 100 µM (inactive); in test [16] it was 18 µM (inactive); in test [17], > 100 µM (inactive); in test [18], 41.4 µM; in [19], 18.8 µM (inactive). The GI50 in test [20] was 53.1 µM (inactive).
With `Cc1cnc(SCCN2CCN(C)CC2)nc1-c1cc2ccccc2s1`, the GI50 in test [1] is 16.2 µM (inactive); in [2], > 10 µM (inactive); in [3], 13.3 µM (inactive); in test [4] it was 16.1 µM (inactive); in test [5], 3.18 µM (inactive); in test [6], 16.2 µM (inactive). The GI50 in test [7] was 16.7 µM (inactive); in test [8], 11.4 µM (inactive); in test [11] it was 14.3 µM (inactive); in [12] it was > 10 µM (inactive); in test [13], 7.78 µM (inactive); in test [14], 12.6 µM (inactive). For the same compound, the GI50 was 17 µM (inactive) in test [15]; 5.98 µM (inactive) in test [16]; 4.62 µM (inactive) in test [17]; 10.5 µM in test [18]; 16.3 µM (inactive) in [19]; 10.3 µM (inactive) in test [20].
With `Cc1[nH]c(=O)nc(S)c1C(=O)NC1C2CCCCC2NC2CCCCC21` (centres undefined), the GI50 in test [1] was 11.2 µM (inactive); in test [2] it was 18.4 µM (inactive); in test [3], 25 µM (inactive); in [4] it was 17.4 µM (inactive); in test [5], 14.8 µM (inactive); in test [6] it was 4.09 µM (inactive). Moreover, the GI50 in test [7] was 18.3 µM (inactive); in test [8] it was 15.1 µM (inactive); in test [10], 15.6 µM (inactive); in test [11], 20.5 µM (inactive); in [12], 15.7 µM (inactive); in [13] it was 13.8 µM (inactive). Further, the GI50 in test [14] was 15.1 µM (inactive); in test [15] it was 24.1 µM (inactive); in [16], 16 µM (inactive); in test [18], 10.9 µM; in test [19], 14.4 µM (inactive); in test [20], 16.3 µM (inactive).
For the compound `Cc1ccc(N(O)C(C)(C)C)cc1`, the GI50 in test [1], in test [2], in test [3], in [4], in test [5] and in test [6] was > 100 µM (inactive) throughout. Further, the GI50 in test [7], in [8], in test [9], in test [10], in test [11] and in test [12] was > 100 µM (inactive) each time. The GI50 in test [13] was > 100 µM (inactive); in test [14], > 100 µM (inactive); in test [15] it was > 100 µM (inactive); in test [16], > 100 µM (inactive); in test [17] it was > 100 µM (inactive); in [18], above 100 µM. For the same compound, the GI50 in test [19] and in test [20] was > 100 µM (inactive) throughout.
Consider `COc1cc(/N=N\c2cccc(S(=O)(=O)O)c2)c(C)cc1/N=N\c1ccc(/C=C/c2ccc(/N=[N+](/[O-])c3ccc(/C=C/c4ccc(/N=N\c5cc(C)c(/N=N/c6cccc(S(=O)(=O)O)c6)cc5OC)cc4)c(S(=O)(=O)O)c3)cc2S(=O)(=O)O)cc1`, for which the GI50 was > 100 µM (inactive) in test [1]; > 84.5 µM (inactive) in test [2]; > 100 µM (inactive) in [3]; > 100 µM (inactive) in test [4]; > 100 µM (inactive) in test [5]; > 100 µM (inactive) in test [6]. Also, the GI50 in test [7] is > 66.7 µM (inactive); in test [8], > 100 µM (inactive); in [9] it was > 100 µM (inactive); in test [10], > 100 µM (inactive); in [11], > 100 µM (inactive); in test [12], > 100 µM (inactive). In addition, the GI50 in test [13] was > 100 µM (inactive); in test [14], > 100 µM (inactive); in test [15], > 100 µM (inactive); in [16], > 100 µM (inactive); in test [17], > 100 µM (inactive); in [18], above 100 µM. Besides, the GI50 in [19] and in test [20] was > 100 µM (inactive) each time.
